Details: instrument: DT, stepped-field

Row | SMILES | collision cross section (N2) ([M+2Na-H]+) [Å²] | collision cross section (N2) ([M+H]+) [Å²] | collision cross section (N2) ([M+K]+) [Å²] | collision cross section (N2) ([M+Na]+) [Å²] | collision cross section (N2) ([M-H]-) [Å²] | collision cross section (N2) ([M+HCOO]-) [Å²] | collision cross section (N2) ([M+Cl]-) [Å²]
1 | CCCCC/C=C\C/C=C\C/C=C\CCCCC(=O)OC[C@H](COP(=O)(O)OC[C@H](N)C(=O)O)OC(=O)CCCCCCCCC/C=C\CCCCCCCCCC [PS(40:04)] | 298.27 | 291.15 | 295.44 | 295.22 | 291.3 | – | –
2 | CCCCC/C=C\C/C=C\C/C=C\C/C=C\CCCC(=O)O[C@H](COC(=O)CCCCCCCCC/C=C\CCCCCCCC)COP(=O)(O)OC[C@H](N)C(=O)O [PS(40:05)] | 297.17 | 289.6 | 294.22 | 293.82 | 290.27 | – | –
3 | CC/C=C\C/C=C\C/C=C\C/C=C\C/C=C\C/C=C\CCC(=O)O[C@H](COC(=O)CCCCCCC/C=C\C/C=C\C/C=C\CC)COP(=O)(O)OC[C@H](N)C(=O)O [PS(40:09)] | 284.82 | – | – | – | – | – | –
4 | CCCCC/C=C\C/C=C\CCCCCCCCCCCC(=O)O[C@H](COC(=O)CCCCCCCCCCCCCCCCCCC)COP(=O)(O)OC[C@H](N)C(=O)O [PS(42:02)] | 306.07 | 299.5 | – | 302 | – | – | –
5 | CCCCC/C=C\C/C=C\CCCCCCCCCCCC(=O)O[C@H](COC(=O)CCCCCCCCC/C=C\CCCCCCCC)COP(=O)(O)OC[C@H](N)C(=O)O [PS(42:03)] | – | 298.03 | – | – | – | – | –
6 | CCCCC/C=C\C/C=C\C/C=C\CCCCCCC(=O)OC[C@H](COP(=O)(O)OC[C@H](N)C(=O)O)OC(=O)CCCCCCCCC/C=C\CCCCCCCCCC [PS(42:04)] | 304.19 | 296.39 | – | 298.86 | – | – | –
7 | CCCCC/C=C\C/C=C\C/C=C\CCCCCCC(=O)OC[C@H](COP(=O)(O)OC[C@H](N)C(=O)O)OC(=O)CCCCCCCCCCC/C=C\C/C=C\CCCCC [PS(42:05)] | 300.15 | 295.24 | – | 297.67 | – | – | –
8 | CC/C=C\C/C=C\C/C=C\C/C=C\C/C=C\C/C=C\CCC(=O)OC[C@H](COP(=O)(O)OC[C@H](N)C(=O)O)OC(=O)CCCCCCCCCCC/C=C\C/C=C\CCCCC [PS(44:08)] | 301.25 | – | – | – | – | – | –
9 | CCCC/C=C\C/C=C\CCCCCCCC(=O)O[C@H](COCCCCCCCCCCCCCCCCCC)COP(=O)(O)OC[C@H](N)C(=O)O [PS(o35:02)] | 282.4 | – | – | – | – | – | –
10 | CCCCCCCCCCCCC=CC[C@@H](O)[C@H](COP(=O)([O-])OCC[N+](C)(C)C)NC(=O)CC=CCCCCCCCCCCCCCC [SM(36:02)] | – | 284.15 | – | 280.32 | – | 289.73 | –
11 | CCCCCCCCCCCCCCCCCCCCCC(=O)N[C@@H](COP(=O)([O-])OCC[N+](C)(C)C)[C@H](O)CCCCCCCCCCCCCCC [SM(40:00)] | – | 299.61 | – | – | – | 303.38 | 301.5
12 | CCCCCCCCCCCCC=CC[C@@H](O)[C@H](COP(=O)([O-])OCC[N+](C)(C)C)NC(=O)CCCCCCCCCCCCCCCCCCCCC [SM(40:01)] | – | 297.88 | – | 296 | – | 301.44 | 300.79
13 | CCCCCCCCCCCCCCCCCCCCCCC(=O)N[C@@H](COP(=O)([O-])OCC[N+](C)(C)C)[C@H](O)CCCCCCCCCCCCCCC [SM(41:00)] | 301.12 | 302.29 | – | – | – | – | –
14 | CCCCCCCCCCCCC=CC[C@@H](O)[C@H](COP(=O)([O-])OCC[N+](C)(C)C)NC(=O)CC=CCCCCCCCCCCCCCCCCCCC [SM(41:02)] | – | 298.91 | – | 296.38 | – | 303.33 | –
15 | CCCCCCCCCCCCC=CC[C@@H](O)[C@H](COP(=O)([O-])OCC[N+](C)(C)C)NC(=O)CC=CCC=CCCCCCCCCCCCCCCCCC [SM(42:03)] | – | 299.58 | – | 297.59 | – | 304.85 | –
16 | CCCCCCCCCCCCC=CC[C@@H](O)[C@H](COP(=O)([O-])OCC[N+](C)(C)C)NC(=O)CCCCCCCCCCCCCCCCCCCCCCCC [SM(43:01)] | – | 306.91 | – | 304.16 | – | – | –
17 | CCCCCCCCCCCCC=CC[C@@H](O)[C@H](COP(=O)([O-])OCC[N+](C)(C)C)NC(=O)CC=CCCCCCCCCCCCCCCCCCCCCC [SM(43:02)] | – | 304.47 | – | 303.6 | – | – | –

From the C3SDB collision cross section collection
